# Reference: patent publication US20070128217A1 (priority 2003, published 2007)
# Key:
# [1] = test system: rabbit serum obtained by immunizing a rabbit with the SARS-CoV strain Frankfurt 1; assay type: binding; parameters: Binding of a rabbit serum to linear peptides / Binding of a rabbit serum to looped peptides / Rabbit serum linear peptides / Rabbit serum looped peptides / Binding of a rabbit serum to linear peptides of protein N of SARS-CoV Urbani (Rabbit serum linear peptides) / Binding of a rabbit serum to looped/cyclic peptides of protein N of SARS-CoV Urbani (Rabbit serum looped peptides): unit not given here
# [2] = test system: recombinant human anti-SARS-CoV antibody 03-018; assay type: binding; parameters: Binding of antibody 03-018 to linear peptides of the N protein of SARS-CoV Urbani / Binding of antibody 03-018 to looped/cyclic peptides of the N protein of SARS-CoV Urbani: unit not given here
# [3] = test system: antibodies in sera from SARS patients (sera 1a, 1b, 2, 6, 37, 62, London, SARS-yellow, SARS-green); assay type: binding, human; parameters: Binding of serum 6 to linear peptides of protein X1 of SARS-CoV Urbani / Binding of serum 37 to linear peptides of protein X1 of SARS-CoV Urbani / Binding of serum 6 to looped/cyclic peptide (PEPSCAN-ELISA) / Binding of serum 37 to looped/cyclic peptide (PEPSCAN-ELISA) / Binding of serum 37 to looped/cyclic peptides of protein X1 of SARS-CoV Urbani / Binding of serum 6 to linear peptides of protein X2 / Binding of serum 37 to linear peptides of protein X2 / Binding of serum 37 to looped/cyclic peptides of protein X2 of SARS-CoV Urbani / Binding of serum 6 to linear peptides of protein M of SARS-CoV Urbani / Binding of serum 37 to linear peptides of protein M of SARS-CoV Urbani / Binding of serum 6 to looped/cyclic peptides of protein M of SARS-CoV Urbani / Binding of serum 37 to looped/cyclic peptides of protein M of SARS-CoV Urbani / Binding of serum 6 to linear peptides of protein X3 of SARS-CoV Urbani / Binding of serum 37 to linear peptides of protein X3 of SARS-CoV Urbani / Binding of serum 37 to looped/cyclic peptides of protein X3 of SARS-CoV Urbani / Binding of serum 6 to linear peptides of protein X4 of SARS-CoV Urbani / Binding of serum 37 to linear peptides of protein X4 of SARS-CoV Urbani / Binding of serum 37 to looped/cyclic peptides of protein X4 of SARS-CoV Urbani / Binding of serum 6 to linear peptides of protein X5 of SARS-CoV Urbani / Binding of serum 37 to linear peptides of protein X5 of SARS-CoV Urbani / Binding of serum 37 to looped/cyclic peptides of protein X5 of SARS-CoV Urbani / Binding of serum 6 to linear peptides of protein N of SARS-CoV Urbani / Binding of serum 37 to linear peptides of protein N of SARS-CoV Urbani / Binding of serum 6 to linear peptide (PEPSCAN-ELISA) / Binding of serum 1a to looped/cyclic peptides of protein N of SARS-CoV Urbani / Binding of serum 1b to looped/cyclic peptides of protein N of SARS-CoV Urbani / Binding of serum 2 to looped/cyclic peptides of protein N of SARS-CoV Urbani / Binding of serum 6 to looped/cyclic peptides of protein N of SARS-CoV Urbani / Binding of serum 37 to looped/cyclic peptides of protein N of SARS-CoV Urbani / Binding of serum 62 to looped/cyclic peptides of protein N of SARS-CoV Urbani / Binding of serum London to looped/cyclic peptides of protein N of SARS-CoV Urbani / Binding of serum SARS-green to looped/cyclic peptides of protein N of SARS-CoV Urbani: unit not given here
# [4] = test system: control sera (pooled serum of ten healthy LUMC hospital workers; commercial negative donor pooled serum from the Dutch bloodbank); assay type: binding, human; parameters: Binding of Control serum LUMC to linear peptides / Binding of Control serum Blood-bank to linear peptides / Binding of Control serum LUMC to looped peptides / Binding of Control Serum Blood-Bank to Looped peptides / Binding of Control serum LUMC to linear peptides of the protein M of SARS-CoV Urbani / Binding of Control serum Blood-bank to linear peptides of the protein M of SARS-CoV Urbani / Binding of Control serum LUMC to looped peptides of the protein M of SARS-CoV Urbani / Binding of Control Serum Blood-Bank to Looped peptides of the protein M of SARS-CoV Urbani: unit not given here
Sequence,Binding of a rabbit serum to linear peptides of protein N of SARS-CoV Urbani (Rabbit serum linear peptides) [1],Binding of a rabbit serum to looped/cyclic peptides of protein N of SARS-CoV Urbani (Rabbit serum looped peptides) [1],Binding of antibody 03-018 to linear peptides of the N protein of SARS-CoV Urbani [2],Binding of antibody 03-018 to looped/cyclic peptides of the N protein of SARS-CoV Urbani [2],Binding of serum 1a to linear peptides of protein N of SARS-CoV Urbani [3],Binding of serum 1a to looped/cyclic peptides of protein N of SARS-CoV Urbani [3],Binding of serum 1b to linear peptides of protein N of SARS-CoV Urbani [3],Binding of serum 1b to looped/cyclic peptides of protein N of SARS-CoV Urbani [3],Binding of serum 2 to linear peptides of protein N of SARS-CoV Urbani [3],Binding of serum 2 to looped/cyclic peptides of protein N of SARS-CoV Urbani [3],Binding of serum 6 to looped/cyclic peptides of protein N of SARS-CoV Urbani [3],Binding of serum 37 to looped/cyclic peptides of protein N of SARS-CoV Urbani [3],Binding of serum 62 to looped/cyclic peptides of protein N of SARS-CoV Urbani [3],Binding of serum London to looped/cyclic peptides of protein N of SARS-CoV Urbani [3],Binding of serum SARS-green to looped/cyclic peptides of protein N of SARS-CoV Urbani [3],Binding of serum SARS-yellow to looped/cyclic peptides of protein N of SARS-CoV Urbani [3],Binding of Control Serum Blood-Bank to Looped peptides [4],Binding of Control serum Blood-bank to linear peptides [4],Binding of Control serum LUMC to linear peptides [4],Binding of Control serum LUMC to looped peptides [4],also measured
SLPYGANKEGIVWVA,0.2,0.3,0.1,0.2,0.3,0.3,0.1,0.2,0.2,0.5,0.3,0.7,0.6,0.4,0.3,0.4,0.6,0.9,0.7,0.6,Binding of serum 6 to linear peptides of protein N of SARS-CoV Urbani [3]: 0.2; Binding of serum 37 to linear peptides of protein N of SARS-CoV Urbani [3]: 0.8; Binding of serum 62 to linear peptides of protein N of SARS-CoV Urbani [3]: 1.2; Binding of serum London to linear peptides of protein N of SARS-CoV Urbani [3]: 0.6; Binding of serum SARS-green to linear peptides of protein N of SARS-CoV Urbani [3]: 0.5; Binding of serum SARS-yellow to linear peptides of protein N of SARS-CoV Urbani [3]: 0.7
SNQRSAPRITFGGPT,0.4,0.9,–,–,0.2,0.4,0.1,0.2,0.2,0.4,0.4,0.7,0.4,0.9,0.3,0.6,0.7,0.6,0.5,0.7,Recognition of the peptide by antibody 03-018 [2]: recognized; Binding of serum 6 to linear peptides of protein N of SARS-CoV Urbani [3]: 0.1; Binding of serum 37 to linear peptides of protein N of SARS-CoV Urbani [3]: 0.6; Binding of serum 62 to linear peptides of protein N of SARS-CoV Urbani [3]: 0.6; Binding of serum London to linear peptides of protein N of SARS-CoV Urbani [3]: 0.4; Binding of serum SARS-green to linear peptides of protein N of SARS-CoV Urbani [3]: 0.2; Binding of serum SARS-yellow to linear peptides of protein N of SARS-CoV Urbani [3]: 0.5
SPRWYFYYLGTGPEA,0.2,0.6,0.1,0.2,0.3,0.6,0.2,0.3,0.2,0.5,0.4,0.9,1.1,0.7,0.6,0.7,0.8,0.7,0.6,0.8,Binding of serum 6 to linear peptides of protein N of SARS-CoV Urbani [3]: 0.2; Binding of serum 37 to linear peptides of protein N of SARS-CoV Urbani [3]: 0.9; Binding of serum 62 to linear peptides of protein N of SARS-CoV Urbani [3]: 0.9; Binding of serum London to linear peptides of protein N of SARS-CoV Urbani [3]: 0.5; Binding of serum SARS-green to linear peptides of protein N of SARS-CoV Urbani [3]: 0.6; Binding of serum SARS-yellow to linear peptides of protein N of SARS-CoV Urbani [3]: 0.6
SRGGSQASSRSSSRS,0.2,0.5,0.1,0.2,–,0.4,–,0.3,–,0.3,0.3,0.5,0.3,0.3,0.2,0.2,0.5,0.7,0.6,0.6,Binding of serum 1a to linear peptide (PEPSCAN-ELISA) [3]: 0.3; Binding of serum 1b to linear peptide (PEPSCAN-ELISA) [3]: 0.1; Binding of serum 2 to linear peptide (PEPSCAN-ELISA) [3]: 0.3; Binding of serum 6 to linear peptide (PEPSCAN-ELISA) [3]: 0.4; Binding of serum 37 to linear peptide (PEPSCAN-ELISA) [3]: 0.6; Binding of serum 62 to linear peptide (PEPSCAN-ELISA) [3]: 0.7; Binding of serum London to linear peptide (PEPSCAN-ELISA) [3]: 0.4; Binding of serum SARS-green to linear peptide (PEPSCAN-ELISA) [3]: 0.1; Binding of serum SARS-yellow to linear peptide (PEPSCAN-ELISA) [3]: 0.9
